Laboratory results reported in patent publication US20120016009A1, “Optimized Methods For Delivery Of DSRNA Targeting The PCSK9 Gene” (priority 2008, published 2012).
In the oligonucleotide strings, read from the 5' end, every base follows the letter of its sugar. An asterisk marks phosphorothioate; unmarked linkages are phosphodiester. Other units and linkages are bracketed, terminal groups are in braces. A string of capitals states the bases alone. d = 2'-deoxy (DNA); m = 2'-O-methyl; r = 2'-OH (RNA)

Tested on: PCSK9 mRNA
Assay: PCSK9 siRNA screening in HepG2 cells (lipofectamine 2000 transfection, PCSK9 mRNA by Quantigene, normalized to GAP-DH)
Type: cell-based, human
Conditions: for Mean percent remaining mRNA transcript at siRNA concentration/in cell type 30 nM/HepG2: 30 nM siRNA; for Mean percent remaining mRNA transcript at siRNA concentration/in cell type 3 nM/HepG2: 3 nM siRNA
Procedure, shortened: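 PCSK9 silencing was assessed in HepG2 cells by lipofectamine 2000 siRNA transfection in 96-well plates. Twenty-four hours later, lysates were analyzed with the Quantigene Explore Kit, with PCSK9 signal normalized to GAP-DH. Eight datapoints were collected per siRNA, and remaining transcript was expressed as a percentage of cells treated with an unrelated control siRNA duplex.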

Row | Substance | Mean percent remaining mRNA transcript at siRNA concentration/in cell type 30 nM/HepG2 | IC50 | Mean percent remaining mRNA transcript at siRNA concentration/in cell type 3 nM/HepG2
1 | AD-9668: PCSK9 siRNA (sense rAmUmCrGrArGrGrGmCrArGrGrGmUmCrAmUrGrGdT*dT; antisense rCmCrArUrGrArCrCrCrUrGrCrCrCrUrCrGrArUdT*dT) | 92% |  | 
2 | AD-9669: PCSK9 siRNA (sense mCrGmCrGmUrGmCmUmCrArAmCmUrGmCmCrArArGdT*dT; antisense rCrUrUrGrGmCrArGrUrUrGrArGmCrArCrGrCrGdT*dT) | 97% |  | 
3 | AD-9670: PCSK9 siRNA (sense mUrGrArGrGrAmCmCrArGmCrGrGrGmUrAmCmUrGdT*dT; antisense mCrArGmUrArCrCrCrGrCrUrGrGrUrCrCrUmCrAdT*dT) | 67% |  | 
4 | AD-9671: PCSK9 siRNA (sense rArGmUmCrArArGrGrArGmCrAmUrGrGrArAmUmCdT*dT; antisense rGrArUrUrCmCrArUrGrCrUrCrCrUrUrGrArCrUdT*dT) | 15% | 2.5 nM | 33%
5 | AD-9672: PCSK9 siRNA (sense mUrArGmCmCmUmUrGmCrGmUmUmCmCrGrArGrGrAdT*dT; antisense rUrCrCrUrCrGrGrArArCrGmCrArArGrGrCmUrAdT*dT) | 57% |  | 
6 | AD-9673: PCSK9 siRNA (sense mCmUmCrGmCrArGmUmCrArGrArGmCrGmCrAmCmUdT*dT; antisense rArGrUrGrCrGrCrUrCrUrGrArCrUrGrCrGrArGdT*dT) | 56% |  | 57%
7 | AD-9674: PCSK9 siRNA (sense rGmCrArGmUmCrArGrArGmCrGmCrAmCmUrGmCmCdT*dT; antisense rGrGmCrArGrUrGrCrGrCrUrCrUrGrArCrUrGrCdT*dT) | 36% |  | 57%
8 | AD-9675: PCSK9 siRNA (sense rGrGrGmCmCmCrAmCrArAmCrGmCmUmUmUmUrGrGdT*dT; antisense rCmCrArArArArGrCrGrUrUrGrUrGrGrGrCrCrCdT*dT) | 78% |  | 
9 | AD-9676: PCSK9 siRNA (sense rGrArGrGrGmUrGmUmCmUrAmCrGmCmCrAmUmUrGdT*dT; antisense mCrArArUrGrGrCrGmUrArGrAmCrArCrCrCrUrCdT*dT) | 100% |  | 
10 | AD-9677: PCSK9 siRNA (sense UGGCGGGUGGGUACAGCCGTT; antisense CGGCUGUACCCACCCGCCATT; chemistry not given here) | 62% |  | 
11 | AD-9678: PCSK9 siRNA (sense rArGrGrArGmCrAmUrGrGrArAmUmCmCmCrGrGmCdT*dT; antisense rGrCrCrGrGrGrArUrUrCmCrArUrGrCrUrCrCrUdT*dT) | 76% |  | 
12 | AD-9681: PCSK9 siRNA (sense rGmUmCrArGrGrArGmCmCrGrGrGrAmCrGmUmCrAdT*dT; antisense rUrGrArCrGrUrCrCrCrGrGrCrUrCrCrUrGrArCdT*dT) | 55% |  | 
13 | AD-9682: PCSK9 siRNA (sense uGGuGGAGGuGuAucuccuTsT; antisense AGGAGAuAcACCUCcACcATsT; as printed in the source, key not given here) | 38% |  | 
14 | AD-9683: PCSK9 siRNA (sense mCmCrAmCmCrGrGrGrArArAmUmCrGrArGrGrGmCdT*dT; antisense rGrCrCrCrUrCrGrArUrUrUrCrCrCrGrGrUrGrGdT*dT) | 48% |  | 
15 | AD-9684: PCSK9 siRNA (sense mUrAmUmCmUmUmUmUrGrGrGmUmCmUrGmUmCmCmUdT*dT; antisense rArGrGrAmCrArGrArCrCmCrArArArArGrAmUrAdT*dT) | 63% |  | 
16 | AD-9685: PCSK9 siRNA (sense rGmUrGrAmCmCrAmCmCrGrGrGrArArAmUmCrGrAdT*dT; antisense rUrCrGrArUrUrUrCrCrCrGrGrUrGrGrUmCrArCdT*dT) | 77% |  | 
17 | AD-9686: PCSK9 siRNA (sense rGrArGmUmUmUrAmUmUmCrGrGrArArArArGmCmCdT*dT; antisense rGrGrCrUrUrUrUrCrCrGrArAmUrArArArCrUrCdT*dT) | 111% |  | 
18 | AD-9687: PCSK9 siRNA (sense rGrAmCrAmCmCrArGmCrAmUrAmCrArGrArGmUrGdT*dT; antisense mCrArCrUrCrUrGmUrArUrGrCrUrGrGrUrGrUrCdT*dT) | 84% |  | 
19 | AD-9688: PCSK9 siRNA (sense mUmCmUmCmCmUrArGrAmCrAmCmCrArGmCrAmUrAdT*dT; antisense mUrArUrGrCrUrGrGrUrGrUrCmUrArGrGrArGrAdT*dT) | 26% | 4.2 nM | 34%

Row | Substance | Mean percent remaining mRNA transcript at siRNA concentration/in cell type 30 nM/HepG2 | IC50 | Mean percent remaining mRNA transcript at siRNA concentration/in cell type 3 nM/HepG2
20 | AD-9689: PCSK9 siRNA (sense mCrGmCmUrGmCmCrGrGmCrArAmCmUmUmCmCrGrGdT*dT; antisense rCrCrGrGrArArGrUrUrGrCrCrGrGmCrArGrCrGdT*dT) | 81% |  | 
21 | AD-9690: PCSK9 siRNA (sense mUmCrAmUmUrGrGmUrGmCmCmUmCmCrArGmCrGrAdT*dT; antisense rUrCrGrCrUrGrGrArGrGmCrArCmCrArArUrGrAdT*dT) | 92% |  | 
22 | AD-9691: PCSK9 siRNA (sense mUrAmCmUmCmUrGmCmUmCmUrAmUrGmCmCrArGrGdT*dT; antisense rCrCrUrGrGmCrAmUrArGrArGmCrArGrArGmUrAdT*dT) | 49% |  | 
23 | AD-9692: PCSK9 siRNA (sense mUrGmCmCrGrGrGmCmCmCrAmCrArAmCrGmCmUmUdT*dT; antisense rArArGrCrGrUrUrGrUrGrGrGrCrCrCrGrGmCrAdT*dT) | 78% |  | 
24 | AD-9693: PCSK9 siRNA (sense mCrGmCmUrGmUrGmUrGrGrAmCmCmUmCmUmUmUrGdT*dT; antisense mCrArArArGrArGrGrUrCmCrAmCrAmCrArGrCrGdT*dT) | 50% |  | 
25 | AD-9694: PCSK9 siRNA (sense rGmUmUrGrArGrGmCrArGrArGrAmCmUrGrAmUmCdT*dT; antisense rGrArUmCrArGrUrCrUrCrUrGrCrCrUmCrArArCdT*dT) | 52% |  | 
26 | AD-9695: PCSK9 siRNA (sense rArGmCmUmCmCmUrGmCrAmCrArGmUmCmCmUmCmCdT*dT; antisense rGrGrArGrGrArCrUrGrUrGmCrArGrGrArGrCrUdT*dT) | 102% |  | 
27 | AD-9696: PCSK9 siRNA (sense mCmUrGmCmCrGrGrGmCmCmCrAmCrArAmCrGmCmUdT*dT; antisense rArGrCrGrUrUrGrUrGrGrGrCrCrCrGrGmCrArGdT*dT) | 77% |  | 
28 | AD-9697: PCSK9 siRNA (sense rGmCmCrArGrGmUrGmCmUrGmCmCmUrGmCmUrAmCdT*dT; antisense rGmUrArGmCrArGrGmCrArGmCrArCrCrUrGrGrCdT*dT) | 74% |  | 89%
29 | AD-9698: PCSK9 siRNA (sense mCmCrArGrGmUrGmCmUrGmCmCmUrGmCmUrAmCmCdT*dT; antisense rGrGmUrArGmCrArGrGmCrArGmCrArCrCrUrGrGdT*dT) | 73% |  | 
30 | AD-9699: PCSK9 siRNA (sense rAmUrGrGmUmCrAmCmCrGrAmCmUmUmCrGrArGrAdT*dT; antisense rUrCrUrCrGrArArGrUrCrGrGrUrGrArCmCrArUdT*dT) | 32% | 2.5 nM | 36%
31 | AD-9701: PCSK9 siRNA (sense mCmCrGmCmUrGmCmCrGrGmCrArAmCmUmUmCmCrGdT*dT; antisense rCrGrGrArArGrUrUrGrCrCrGrGmCrArGrCrGrGdT*dT) | 100% |  | 
32 | AD-9702: PCSK9 siRNA (sense rGmCrArGrArGrAmCmUrGrAmUmCmCrAmCmUmUmCdT*dT; antisense rGrArArGrUrGrGrArUmCrArGrUrCrUrCrUrGrCdT*dT) | 79% |  | 
33 | AD-9704: PCSK9 siRNA (sense mCrAmUmUmUrAmUmCmUmUmUmUrGrGrGmUmCmUrGdT*dT; antisense mCrArGrArCrCmCrArArArArGrAmUrArArArUrGdT*dT) | 111% |  | 
34 | AD-9705: PCSK9 siRNA (sense rAmUmCrGrArGrGrArGrGrAmCmUmCmCmUmCmUrGdT*dT; antisense mCrArGrArGrGrArGrUrCrCrUrCrCrUrCrGrArUdT*dT) | 81% |  | 
35 | AD-9706: PCSK9 siRNA (sense mCmCmUrGmCrGmCrGmUrGmCmUmCrArAmCmUrGmCdT*dT; antisense rGmCrArGrUrUrGrArGmCrArCrGrCrGmCrArGrGdT*dT) | 86% |  | 
36 | AD-9707: PCSK9 siRNA (sense mUrGmCrGmCrGmUrGmCmUmCrArAmCmUrGmCmCrAdT*dT; antisense rUrGrGmCrArGrUrUrGrArGmCrArCrGrCrGmCrAdT*dT) | 81% |  | 
37 | AD-9708: PCSK9 siRNA (sense mCmCrArGmCrAmUmCmCrAmCrGmCmUmUmCmCmUrGdT*dT; antisense mCrArGrGrArArGrCrGrUrGrGrArUrGrCrUrGrGdT*dT) | 81% |  | 
38 | AD-9709: PCSK9 siRNA (sense mCmCmCrAmUrGmUmCrGrAmCmUrAmCrAmUmCrGrAdT*dT; antisense rUrCrGrArUrGmUrArGrUrCrGrAmCrArUrGrGrGdT*dT) | 104% |  | 
